The text below walks through data of patent publication US11352392B2, “Artificially synthesized peptide H-473 and use thereof” (CHINA WEST NORMAL UNIVERSITY, priority 2018, dated 2022).

Series [1] relates to cfpac-1 xenograft tumors. The series is described as follows: Pharmacodynamic experiment on cfpac-1 xenograft tumor in nude mice. The format is in vivo, BALB/c nude mice. To be noted: cfpac-1 xenograft nude mice; H-473 1 μg/kg or Interleukin-2 200,000 IU/kg, tail vein, once a day for 10 times.
Method: (§1) Model control group: physiological saline, 0.1 ml/10 g, once a day for 10 times.
The cultured cfpac-1 cell suspension was collected at a concentration of 1×10^7 cells/ml and inoculated subcutaneously in the right axilla of nude mice, 0.1 ml/mouse.
Diameters of the xenograft tumors in nude mice were measured with a vernier caliper. 17 days after inoculation, the animals were randomized into groups with 8 in each group when the tumors grew to 100-150 mm^3. At the same time, each group of nude mice began to be dosed. […] The anti-tumor effect of the test sample was dynamically observed by using a method of measuring tumor diameter. […]
(§2) Tumor volume (TV) was calculated according to the following formula: TV=½×a×b^2, wherein, a and b represent length and width, respectively.
(§3) Relative tumor volume (RTV) was calculated according to the measured results according to the following formula: RTV=Vt/V0, wherein, V0 is tumor volume measured when the animals are divided into cages and dosed (i.e., d0) and Vt is tumor volume at each measurement.
(§4) Evaluation indicator of anti-tumor activity: relative tumor proliferation rate T/C (%) was calculated according to the following formula:
(§5) Evaluation indicator of antitumor activity: tumor growth inhibition rate (%) was calculated according to the following formula: […]
Series [2] relates to MGC-803 xenograft tumors. Briefly: Pharmacodynamic experiment on human gastric cancer MGC-803 xenograft tumor in nude mice. It counts as in vivo, BALB/c nude mice. The settings on record: MGC-803 xenograft nude mice; H-473 1 μg/kg or Interleukin-2 200,000 IU/kg, tail vein, once a day for 10 times.
Method: as §1
The cultured MGC-803 cell suspension was collected at a concentration of 1×10^7 cells/ml and inoculated subcutaneously in the right axilla of nude mice, 0.1 ml/mouse.
Diameters of the xenograft tumors in nude mice were measured with a vernier caliper. 8 days after inoculation, the animals were randomized into groups with 8 in each group when the tumors grew to 100-150 mm^3. At the same time, each group of nude mice began to be dosed. […] The anti-tumor effect of the test sample was dynamically observed by using a method of measuring tumor diameter. […]
as §2, §3, §4, §5
In series [3] the test system is asthma in mice. Briefly: Effect on asthma in mice (OVA sensitization, BALF cell count). It counts as in vivo, BALB/C mice. To be noted: dexamethasone 1 mg/kg intramuscular, 7 d. How it is done:
At day 35 of the experiment, the test samples were respectively given one hour prior to OVA atomization.
5.6.1 Asthma model: mice were injected intraperitoneally with 0.2 ml of a sensitizing solution (ovalbumin OVA 80 μg+ Adjuvant liquid aluminum 0.1 ml) twice on days 0 and 14. From day 24 after the first sensitization, 2.5% OVA was aerosolized and inhaled for 45 min once daily for 18 days.
5.6.2 Administration: the corresponding test sample was given 1 h before the OVA solution atomization challenge since day 35 of the experiment. H-473 15 μg/kg group and H-473 30 μg/kg group were injected intramuscularly, respectively. The positive control group was injected with dexamethasone 1 mg/kg intramuscularly. Normal control group and model control group were injected with saline intramuscularly.
General global observations: respiratory rate, whether there was dyspnea, cyanosis, dysphoria and convulsion.
Bronchoalveolar lavage fluid (BALF) cells were counted and classified (EOS ratio elevated or not).

Ends that are not written are not given here.

With RGLRGLR [H-473, RGLRGLR], the “Body weight of animals At sacrifice” value came to 22.91 ± 1.12 g in series [1] and 22.80 ± 0.97 g in series [2].

With `C[C@@H]1C[C@H]2[C@@H]3CCC4=CC(=O)C=C[C@]4(C)[C@@]3(F)[C@@H](O)C[C@]2(C)[C@@]1(O)C(=O)CO` [Positive control, dexamethasone], in series [3], the “BALF ESO” value is recorded as 0.15 ± 0.05^## 10^9/L, the “BALF ESO %” value is given as 3.75 ± 0.83 % and the “BALF WBC” value is 3.8 ± 0.5^## 10^9/L.
